Data: US9169252B2 (BRISTOL-MYERS SQUIBB COMPANY, priority 2014, dated 2015)
pEC50, pIC50: −log10 of the molar value. Like-named read-outs stand apart in the source and are kept apart here.

Key:
IRAK4 = IRAK4 (Homo sapiens (Human), UniProt Q9NWZ3); test: IRAK4 Inhibition Assay; format: biochemical; settings: ATP 500 μM, read-out: IRAK4 IC50
Summary of the method: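 Mobility-shift readout: fluorescent substrate and phosphoproduct resolved electrophoretically on Caliper LabChip 3000 after EDTA quench (35 mM). Enzyme reaction of IRAK4, substrates and test compound ran 60 min at room temperature.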

[1] = test system: TLR2 induced IL-6 in peripheral blood mononuclear cells (PBMCs); test: PBMC TLR2 Induced IL-6 Assay; format: cell-based, human; settings: IL-6 by ELISA; for pIC50: read-out: Cell IC50; for pEC50: read-out: Cell EC50
Summary of the method: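 Lipoteichoic acid at 10 µg/ml served as TLR2 stimulus for 5 hours, following a 30-minute compound pretreatment at 37° C. Cells were Ficoll-isolated human PBMCs, 250000 cells/well, cultured in RPMI plus 10% heat-inactivated FCS.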

[2] = Homo sapiens, PBMC, human PBMCs, lipoteichoic acid stimulated
[3] = Homo sapiens, PBMC, PBMC TLR2 Induced IL-6 Assay, lipoteichoic acid stimulation
[4] = PBMC TLR2 Induced IL-6 Assay, lipoteichoic acid stimulation

IRAK4, sequence (Q9NWZ3 whole entry, species assumed): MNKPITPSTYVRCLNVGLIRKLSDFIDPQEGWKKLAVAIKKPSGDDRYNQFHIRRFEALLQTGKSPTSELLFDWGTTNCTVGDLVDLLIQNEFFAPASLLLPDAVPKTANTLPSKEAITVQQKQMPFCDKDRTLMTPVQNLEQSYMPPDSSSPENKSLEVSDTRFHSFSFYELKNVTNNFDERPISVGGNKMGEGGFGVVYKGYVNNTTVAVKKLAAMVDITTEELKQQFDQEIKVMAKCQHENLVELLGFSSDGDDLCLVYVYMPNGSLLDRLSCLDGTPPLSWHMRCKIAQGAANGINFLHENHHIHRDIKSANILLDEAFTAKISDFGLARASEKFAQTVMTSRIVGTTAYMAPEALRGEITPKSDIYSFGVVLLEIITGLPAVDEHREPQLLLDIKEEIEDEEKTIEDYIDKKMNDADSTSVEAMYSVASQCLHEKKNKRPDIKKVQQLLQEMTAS

Structure (SMILES)	pIC50 (IRAK4; IRAK4 0.6 nM)	pIC50 [1, 2]	pIC50 (IRAK4; IRAK4 Inhibition Assay)	further results
CC(C)CCNC(=O)c1cnc(-n2ncc3cc(C#N)c(N)nc32)cc1NC1COC1 [Example 560]	8.47	6.60	–	–
CC(C)CCNC(=O)c1cnc(-n2ncc3cc(C#N)cnc32)cc1N[C@@H](C)CO [Example 320]	–	–	8.25	pIC50 [1, 3]: 6.58
CC(C)(O)[C@H](F)CNC(=O)c1cnc(-n2ccc3cc(C#N)cnc32)cc1NC1CC1c1c[nH]cn1 (mixture of isomers) [Example 460]	8.48	6.95	–	pEC50 [1, 2]: 7.06
CC(C)C(O)CNc1cc(-n2ncc3cc(C#N)cnc32)ncc1C(=O)NC[C@@H](F)C(C)(C)O (some centres unmarked) [Example 597]	7.81	6.51	–	–
CC(O)CCNC(=O)c1cnc(-n2ncc3cc(C#N)cnc32)cc1NC(C)C (centres unmarked) [Example 239]	–	–	8.28	pEC50 [1, 4]: 6.68; pIC50 [1, 4]: 6.11
CC(F)(CO)CNc1cc(-n2ncc3cc(C#N)cnc32)ncc1C(=O)NC[C@@H](F)C(C)(C)O (mixture of isomers) [Example 575]	7.93	6.23	–	–
CC(C)Nc1cc(-n2ccc3cc(C#N)cnc32)ncc1C(=O)N[C@H]1CC[C@H](C(=O)NC(C)C)CC1 [Example 90, 6-(5-cyano-1H-pyrrolo[2,3-b]pyridin-1-yl)-4-(isopropylamino)-N-((trans)-4-(isopropylcarbamoyl)cyclohexyl) nicotinamide]	–	–	8.72	pEC50 [1, 3]: 7.39
CCCCNC(=O)c1cnc(-n2ncc3cc(C#N)cnc32)cc1NC1COC1 [Example 561]	8.11	6.49	–	–
CCn1cc(Nc2cc(-n3cnc4cc(Cl)cnc43)ncc2C(=O)NC[C@@H](F)C(C)(C)O)cn1 [Example 361]	–	–	8.54	pIC50 [1, 3]: 6.69
CC(C)Nc1cc(-n2ccc3cnc(N4CC[C@@H](O)C4)nc32)ncc1C(=O)NC[C@@H](F)C(C)(C)O [Example 190, N—((R)-2-fluoro-3-hydroxy-3-methylbutyl)-6-(2-((R)-3-hydroxypyrrolidin-1-yl)-7H-pyrrolo[2,3-d]pyrimidin-7-yl)-4-(isopropylamino)nicotinamide]	–	–	8.33	pEC50 [1, 3]: 6.92
CC[C@@H](CO)Nc1cc(-n2ncc3cc(C#N)cnc32)ncc1C(=O)NC[C@@H](F)C(C)(C)O [Example 588]	8.36	6.30	–	–
CC(C)(O)[C@H](F)CNC(=O)c1cnc(-n2ncc3cc(C#N)cnc32)cc1NCC1CC1 [Example 605]	8.12	6.78	–	–
CC(C)(O)[C@H](F)CNC(=O)c1cnc(N2CCc3cc(C#N)cnc32)cc1NC1COC1 [Example 549]	7.77	6.12	–	pEC50 [1, 2]: 6.38
CC(C)(O)[C@H](F)CNC(=O)c1cnc(-n2ccc3cc(C#N)cnc32)cc1N[C@H]1CCOC1 [Example 441]	8.52	–	–	pEC50 [1, 2]: 6.96
CC(C)Nc1cc(-n2cnc3cnc(NCCO)nc32)ncc1C(=O)NC[C@@H](F)C(C)(C)O [Example 172, (R)—N-(2-Fluoro-3-hydroxy-3-methylbutyl)-6-(2-((2-hydroxyethyl)amino)-9H-purin-9-yl)-4-(isopropylamino)nicotinamide]	–	–	8.60	pIC50 [1, 3]: 5.00
CC(C)Nc1cc(-n2ccc3cc(CNC(=O)NCc4ccccc4)cnc32)ncc1C(=O)NC[C@@H](F)C(C)(C)O [Example 514]	8.09	7.33	–	–
CC(C)Nc1cc(-n2ncc3cc(C#N)cnc32)ncc1C(=O)NCC(F)(F)C(C)(C)O [Example 167, 6-(5-Cyano-1H-pyrazolo[3,4-b]pyridin-1-yl)-N-(2,2-difluoro-3-hydroxy-3-methylbutyl)-4-(isopropylamino)nicotinamide]	–	–	7.98	pEC50 [1, 3]: 6.77
CC(C)CCNC(=O)c1cnc(-n2ncc3cc(C#N)cnc32)cc1NC(C)C [Example 298]	–	–	8.35	pIC50 [1, 3]: 6.85
CC(C)(O)[C@H](F)CNC(=O)c1cnc(-n2ncc3cc(C#N)cnc32)cc1Nc1ccc2ncsc2c1 [Example 524]	8.59	–	–	pEC50 [1, 2]: 6.88
CC(C)(O)[C@H](F)CNC(=O)c1cnc(-n2ccc3cc(C#N)cnc32)cc1Nc1cccc(-c2ncc[nH]2)c1 [Example 431]	8.68	–	–	pEC50 [1, 2]: 6.97
CC(C)Nc1cc(-n2ccc3cnc(N)nc32)ncc1C(=O)NC[C@@H](F)C(C)(C)O [Example 186, (R)-6-(2-Amino-7H-pyrrolo[2,3-d]pyrimidin-7-yl)-N-(2-fluoro-3-hydroxy-3-methylbutyl)-4-(isopropylamino)nicotinamide]	–	–	8.89	pEC50 [1, 3]: 7.36

Structure (SMILES)	pIC50 (IRAK4; IRAK4 0.6 nM)	pIC50 [1, 2]	pIC50 (IRAK4; IRAK4 Inhibition Assay)	further results
CC(C)(O)[C@H](F)CNC(=O)c1cnc(-n2ccc3cc(C#N)cnc32)cc1NC1CCOCC1 [Example 3, (R)-6-(5-cyano-1H-pyrrolo[2,3-b]pyridin-1-yl)-N-(2-fluoro-3-hydroxy-3-methylbutyl)-4-((tetrahydro-2H-pyran-4-yl)amino)nicotinamide]	–	–	9.00	pEC50 [1, 3]: 7.96; pIC50 [1, 3]: 7.32
CC(=O)N[C@H]1CC[C@H](NC(=O)c2cnc(-n3ccc4cncnc43)cc2NC(C)C)CC1 [Example 84, N-((trans)-4-acetamidocyclohexyl)-4-(isopropylamino)-6-(7H-pyrrolo[2,3-d]pyrimidin-7-yl)nicotinamide]	–	–	8.03	pEC50 [1, 3]: 5.70; pIC50 [1, 3]: 5.70
CC(C)(O)[C@H](F)CNC(=O)c1cnc(-n2ccc3cc(C#N)cnc32)cc1NC1CCOCC1F (single isomer, unassigned) [Example 106]	–	–	8.72	pIC50 [1, 3]: 6.05; pEC50 [1, 4]: 6.05
CC(C)(O)[C@H](F)CNC(=O)c1cnc(-n2ncc3cc(C#N)cnc32)cc1NCc1cocn1 [Example 571]	7.82	7.00	–	–
CCCNc1cc(-n2ncc3cc(C#N)c(N)nc32)ncc1C(=O)NC[C@@H](F)C(C)(C)O [Example 578]	8.59	6.66	–	–
C[C@H](F)CNc1cc(-n2ccc3cc(C#N)cnc32)ncc1C(=O)NC[C@@H](F)C(C)(C)O [Example 507]	8.85	6.43	–	–
CC(C)(O)[C@H](F)CNC(=O)c1cnc(-n2ccc3cc(C#N)cnc32)cc1NC1CC1 [Example 2, (R)-6-(5-cyano-1H-pyrrolo[2,3-b]pyridin-1-yl)-4-(cyclopropylamino)-N-(2-fluoro-3-hydroxy-3-methylbutyl)nicotinamide]	–	–	8.80	pEC50 [1, 3]: 8.10; pIC50 [1, 3]: 7.59
CC(C)(O)[C@H](F)CNC(=O)c1cnc(-n2cnc3cc(C#N)cnc32)cc1NC1CCC1 [Example 338]	–	–	8.35	pIC50 [1, 3]: 6.83
CC(C)Nc1cc(-n2ncc3cc(Cl)cnc32)ncc1C(=O)NCCN1CCOCC1 [Example 154, 6-(5-chloro-1H-pyrazolo[3,4-b]pyridin-1-yl)-4-(isopropylamino)-N-(2-morpholinoethyl)nicotinamide]	–	–	7.92	pEC50 [1, 3]: 6.23
CC(C)(F)[C@H](F)CNC(=O)c1cnc(-n2cnc3cc(Cl)cnc32)cc1Nc1cnn(CC(F)F)c1 [Example 402]	8.60	6.39	–	–
CCNc1cc(-n2ncc3cc(C#N)c(N)nc32)ncc1C(=O)NC[C@@H](F)C(C)(C)O [Example 577]	8.49	6.76	–	–
CC(C)(O)[C@H](F)CNC(=O)c1cnc(-n2ccc3cc(C#N)cnc32)cc1N[C@@H]1CCOC1 [Example 440]	8.72	–	–	pEC50 [1, 2]: 7.14
CC(C)(O)[C@H](F)CNC(=O)c1cnc(-n2ncc3cc(F)cnc32)cc1NC1CC1 [Example 156, (R)-4-(cyclopropylamino)-6-(5-fluoro-1H-pyrazolo[3,4-b]pyridin-1-yl)-N-(2-fluoro-3-hydroxy-3-methylbutyl)nicotinamide]	–	–	8.02	pEC50 [1, 3]: 6.64
CC(C)(O)[C@H](F)CNC(=O)c1cnc(-n2ccc3cc(C#N)cnc32)cc1NCC1CCOCC1 [Example 482]	7.76	–	–	pEC50 [1, 2]: 6.36
CC(CCO)Nc1cc(-n2ccc3cc(C#N)cnc32)ncc1C(=O)NC[C@@H](F)C(C)(C)O (single isomer, unassigned) [Example 21]	–	–	8.64	pEC50 [1, 3]: 7.29
CC(C)Nc1cc(-n2ncc3cc(C#N)cnc32)ncc1C(=O)NCc1nn[nH]n1 [Example 566]	7.76	–	–	pEC50 [1, 2]: 6.20
CC(C)(O)[C@H](F)CNC(=O)c1cnc(-n2ncc3cc(C#N)cnc32)cc1Nc1ccn(CC(F)F)n1 [Example 407]	8.51	6.54	–	–
CC(C)(O)[C@H](F)CNC(=O)c1cnc(-n2ccc3cc(C#N)cnc32)cc1Nc1cccc(S(N)(=O)=O)c1 [Example 416]	8.72	–	–	pEC50 [1, 2]: 7.24
CC(C)(O)[C@H](F)CNC(=O)c1cnc(-n2ncc3cc(F)cnc32)cc1NC1CCC(F)C1 (single isomer, unassigned) [Example 618]	8.24	–	–	pEC50 [1, 2]: 6.90
CC(C)CCNc1cc(-n2ccc3cc(C#N)cnc32)ncc1C(=O)NC[C@@H](F)C(C)(C)O [Example 19, (R)-6-(5-cyano-1H-pyrrolo[2,3-b]pyridin-1-yl)-N-(2-fluoro-3-hydroxy-3-methylbutyl)-4-(isopentylamino) nicotinamide]	–	–	8.49	pEC50 [1, 3]: 6.60
